Measured values published in ChEMBL document CHEMBL5113513, “Selective Inhibitors of Medium-Size S1' Pocket Matrix Metalloproteinases: A Stepping Stone of Future Drug Discovery” (J Med Chem, 2022).

How the values were obtained:
[1] = molecular target: T1, Neutrophil collagenase (Homo sapiens, UniProt P22894); assay: Inhibition of recombinant human MMP-8 for 3 hrs using colorimetric substrate by ELISA
[2] = molecular target: T2, Interstitial collagenase (Homo sapiens, UniProt P03956); assay: Inhibition of recombinant human MMP-1 for 3 hrs using colorimetric substrate by ELISA
T2 sequence (P03956 whole entry): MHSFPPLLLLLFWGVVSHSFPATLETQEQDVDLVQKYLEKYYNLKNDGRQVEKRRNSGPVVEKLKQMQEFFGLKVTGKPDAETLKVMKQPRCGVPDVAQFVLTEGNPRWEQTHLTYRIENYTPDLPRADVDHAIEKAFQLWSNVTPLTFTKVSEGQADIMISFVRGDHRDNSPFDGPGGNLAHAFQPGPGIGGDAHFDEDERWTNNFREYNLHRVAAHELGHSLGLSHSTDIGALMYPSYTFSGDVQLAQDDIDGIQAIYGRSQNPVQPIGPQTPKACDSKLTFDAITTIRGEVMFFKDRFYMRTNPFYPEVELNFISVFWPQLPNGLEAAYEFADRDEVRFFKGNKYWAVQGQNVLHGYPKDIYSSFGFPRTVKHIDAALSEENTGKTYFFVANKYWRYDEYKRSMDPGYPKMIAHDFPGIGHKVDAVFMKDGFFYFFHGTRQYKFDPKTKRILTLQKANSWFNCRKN

[3] = molecular target: T3, 72 kDa type IV collagenase (Homo sapiens, UniProt P08253); assay: Inhibition of recombinant human MMP-2 for 3 hrs using colorimetric substrate by ELISA
T3 sequence (P08253 whole entry): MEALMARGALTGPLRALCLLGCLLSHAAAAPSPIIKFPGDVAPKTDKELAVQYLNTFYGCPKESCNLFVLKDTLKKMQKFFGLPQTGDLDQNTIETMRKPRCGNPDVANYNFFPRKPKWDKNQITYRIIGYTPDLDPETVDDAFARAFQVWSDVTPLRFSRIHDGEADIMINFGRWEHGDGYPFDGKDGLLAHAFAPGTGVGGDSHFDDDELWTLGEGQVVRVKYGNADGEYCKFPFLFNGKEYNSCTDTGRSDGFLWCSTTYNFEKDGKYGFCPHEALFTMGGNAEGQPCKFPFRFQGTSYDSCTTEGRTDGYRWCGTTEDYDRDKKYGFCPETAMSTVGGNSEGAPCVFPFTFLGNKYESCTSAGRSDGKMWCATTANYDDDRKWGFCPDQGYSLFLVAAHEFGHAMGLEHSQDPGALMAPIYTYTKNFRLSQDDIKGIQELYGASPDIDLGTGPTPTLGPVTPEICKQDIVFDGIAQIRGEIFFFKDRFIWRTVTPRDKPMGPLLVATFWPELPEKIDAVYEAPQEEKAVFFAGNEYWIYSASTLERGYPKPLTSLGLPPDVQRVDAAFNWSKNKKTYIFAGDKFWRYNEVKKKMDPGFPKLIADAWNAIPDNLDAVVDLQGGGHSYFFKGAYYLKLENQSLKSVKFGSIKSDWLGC

[4] = molecular target: T2, Interstitial collagenase; assay: Inhibition of MMP-1 (unknown origin) using 7-(methoxycoumarin-4yl)acetyl-Pro-Leu-Gly-Leu-(N-3-[2,4-dinitrophenyl]- L-2,3-diamino-propionyl)-Ala-Arg-NH2 as fluorogenic substrate for 45 mins by fluorogenic analysis
[5] = Clearance in Sprague-Dawley rats at 33 mg/kg, sc; type: ADME, organism-based; conditions: rat, in vivo
[6] = molecular target: Collagenase 3 (Homo sapiens, UniProt P45452); assay: Inhibition of recombinant human MMP-13 using peptide substrate by ELISA
[7] = AUC in Sprague-Dawley rats at 33 mg/kg, po; type: ADME, organism-based; design: dose 33 mg/kg, route po; conditions: rat, in vivo
[8] = molecular target: T4, Matrix metalloproteinase-9 (Homo sapiens, UniProt P14780); assay: Inhibition of recombinant human MMP-9 using peptide substrate by ELISA
T4 sequence (P14780 whole entry): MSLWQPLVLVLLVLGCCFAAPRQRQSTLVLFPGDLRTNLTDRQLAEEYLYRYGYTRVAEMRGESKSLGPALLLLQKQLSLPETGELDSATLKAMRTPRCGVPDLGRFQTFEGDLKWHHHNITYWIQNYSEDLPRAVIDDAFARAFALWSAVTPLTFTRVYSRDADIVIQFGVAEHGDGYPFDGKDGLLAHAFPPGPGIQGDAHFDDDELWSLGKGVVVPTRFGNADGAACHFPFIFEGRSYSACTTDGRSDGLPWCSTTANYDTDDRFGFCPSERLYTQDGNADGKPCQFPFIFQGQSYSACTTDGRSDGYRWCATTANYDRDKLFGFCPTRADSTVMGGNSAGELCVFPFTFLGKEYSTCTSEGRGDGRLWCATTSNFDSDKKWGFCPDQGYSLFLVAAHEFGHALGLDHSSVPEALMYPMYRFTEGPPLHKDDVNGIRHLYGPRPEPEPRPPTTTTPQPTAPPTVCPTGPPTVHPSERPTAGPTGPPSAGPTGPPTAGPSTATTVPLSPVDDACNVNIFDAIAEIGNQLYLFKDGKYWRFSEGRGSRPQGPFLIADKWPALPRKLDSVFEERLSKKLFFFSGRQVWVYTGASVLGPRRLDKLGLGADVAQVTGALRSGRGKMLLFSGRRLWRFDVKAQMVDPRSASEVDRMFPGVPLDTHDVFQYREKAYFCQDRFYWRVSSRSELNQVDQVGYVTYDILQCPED

[9] = Inhibition of recombinant human TACE using peptide substrate by ELISA
[10] = molecular target: Macrophage metalloelastase (Homo sapiens, UniProt P39900); assay: Inhibition of recombinant human MMP-12 using peptide substrate by ELISA
Macrophage metalloelastase, sequence (P39900 whole entry): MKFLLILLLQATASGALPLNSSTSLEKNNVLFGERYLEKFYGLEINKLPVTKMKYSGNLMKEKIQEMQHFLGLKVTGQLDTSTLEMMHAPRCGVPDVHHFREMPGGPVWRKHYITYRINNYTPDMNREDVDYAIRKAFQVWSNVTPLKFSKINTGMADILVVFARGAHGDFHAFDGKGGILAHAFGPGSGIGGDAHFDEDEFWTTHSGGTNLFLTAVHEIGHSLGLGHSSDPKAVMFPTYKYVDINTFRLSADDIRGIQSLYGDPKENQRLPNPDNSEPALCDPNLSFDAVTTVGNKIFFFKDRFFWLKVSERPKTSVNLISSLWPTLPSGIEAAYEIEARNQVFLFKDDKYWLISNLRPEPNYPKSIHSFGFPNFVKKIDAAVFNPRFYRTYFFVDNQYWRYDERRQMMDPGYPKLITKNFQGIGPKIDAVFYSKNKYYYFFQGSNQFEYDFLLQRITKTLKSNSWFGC

[11] = Half life in Sprague-Dawley rat at 33 mg/kg, po; type: ADME, organism-based; conditions: in vivo
[12] = molecular target: T3, 72 kDa type IV collagenase; assay: Inhibition of recombinant human MMP-2 using peptide substrate by ELISA
[13] = Half life in Sprague-Dawley rats at 33 mg/kg, sc; type: ADME, organism-based; conditions: rat, in vivo
[14] = AUC in Sprague-Dawley rats at 33 mg/kg, sc; type: ADME, organism-based; design: dose 33 mg/kg, route sc; conditions: rat, in vivo
[15] = molecular target: T1, Neutrophil collagenase; assay: Inhibition of MMP-8 (unknown origin) using Mca-Pro-Leu-Gly-Leu-Dpa-Ala-Arg-NH2 as substrate preincubated for 30 mins followed by substrate addition for 2 to 4 hrs by fluorimetric assay
[16] = molecular target: T4, Matrix metalloproteinase-9; assay: Inhibition of MMP-9 (unknown origin) using Mca-Pro-Leu-Gly-Leu-Dpa-Ala-Arg-NH2 as substrate preincubated for 30 mins followed by substrate addition for 2 to 4 hrs by fluorimetric assay
[17] = molecular target: Matrix metalloproteinase-14 (Homo sapiens, UniProt P50281); assay: Inhibition of MMP-14 (unknown origin) using Mca-Pro-Leu-Gly-Leu-Dpa-Ala-Arg-NH2 as substrate preincubated for 30 mins followed by substrate addition for 2 to 4 hrs by fluorimetric assay
[18] = Metabolic stability in cynomolgus monkey assessed as clearance at 3 mg/kg, iv; type: ADME, organism-based, Macaca fascicularis; conditions: in vivo
[19] = Half life in rat at 3 mg/kg, iv; type: ADME, organism-based; conditions: in vivo
[20] = Oral bioavailability in dog at 3 mg/kg; type: ADME, organism-based, Canis lupus familiaris; conditions: in vivo
[21] = Plasma concentration in dog at 3 mg/kg, iv measured upto 3 hrs; type: ADME, organism-based, Canis lupus familiaris
[22] = Metabolic stability in dog assessed as clearance at 3 mg/kg, iv; type: ADME, organism-based, Canis lupus familiaris; conditions: in vivo
[23] = Oral bioavailability in cynomolgus monkey at 3 mg/kg; type: ADME, organism-based, Macaca fascicularis; conditions: in vivo
[24] = Oral bioavailability in rat at 3 mg/kg; type: ADME, organism-based; conditions: in vivo
[25] = Half life in cynomolgus monkey at 3 mg/kg, iv; type: ADME, organism-based, Macaca fascicularis; conditions: in vivo
[26] = Plasma concentration in cynomolgus monkey at 3 mg/kg, iv measured upto 3 hrs; type: ADME, organism-based, Macaca fascicularis
[27] = tested on: B16-F10; assay: Antitumor activity in mouse B16-F10 xenografted C57BL mouse lung metastasis model assessed as increase in life span measured per hour at 100 mg/kg, ip bid; type: functional
[28] = Plasma concentration in rat at 3 mg/kg, iv measured upto 3 hrs; type: ADME, organism-based
[29] = Metabolic stability in rat assessed as clearance at 3 mg/kg, iv; type: ADME, organism-based; conditions: in vivo
[30] = molecular target: T2, Interstitial collagenase; assay: Inhibition of MMP-1 (unknown origin) expressed in Escherichia coli BL21(DE3) and measured for 2 mins by enzymatic assay

T1 sequence (P22894 whole entry): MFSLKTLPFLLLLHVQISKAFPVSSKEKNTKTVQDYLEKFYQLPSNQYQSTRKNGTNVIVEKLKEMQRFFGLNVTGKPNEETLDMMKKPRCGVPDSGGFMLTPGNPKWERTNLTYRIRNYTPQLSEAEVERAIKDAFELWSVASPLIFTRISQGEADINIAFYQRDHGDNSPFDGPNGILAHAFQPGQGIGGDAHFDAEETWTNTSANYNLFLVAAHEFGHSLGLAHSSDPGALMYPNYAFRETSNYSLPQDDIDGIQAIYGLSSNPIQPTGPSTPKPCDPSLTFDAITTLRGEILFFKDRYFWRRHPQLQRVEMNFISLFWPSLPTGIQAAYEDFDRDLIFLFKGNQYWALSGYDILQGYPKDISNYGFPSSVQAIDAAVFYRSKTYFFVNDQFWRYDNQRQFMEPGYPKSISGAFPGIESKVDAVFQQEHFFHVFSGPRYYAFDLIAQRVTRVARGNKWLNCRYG

For `CC(C)CNC(=O)P(=O)(O)O`, the IC50 [1] was 1000 nM, the IC50 [2] was 40000 nM and the IC50 [3] was over 100000 nM.
Compound `C=C[C@@H]1OC(Cc2ccccc2)=N[C@H]1CO` has a Ki [4] of over 500000 nM.
For `O=C(NCCCCCCNS(=O)(=O)c1ccc(Oc2ccccc2)cc1)P(=O)(O)O`, the CL/F [5] was 7.1 mL/min/kg, the IC50 [6] was over 100 nM and the AUC [7] was 3300 ng·h/mL. The IC50 [8] was over 100 nM, the IC50 [9] was 20 nM and the IC50 [10] was over 100 nM. For the same compound, the half-life [11] was 5.8 h, the IC50 [12] was 4 nM and the half-life [13] was 6.6 h. The AUC [14] was 50500 ng·h/mL.
`O=P(O)(O)C(NS(=O)(=O)c1ccc(-c2ccc(Cl)cc2)cc1)P(=O)(O)O` gave an IC50 [15] of 320 nM, an IC50 [16] of over 1000 nM and an IC50 [17] of over 1000 nM.
With `CC1(C)NC(=O)N(C[C@@H](COc2ccc(-c3ccc(OC(F)(F)F)cc3)cc2)N(O)C=O)C1=O` the clearance [18] was 1.13 mL/min/kg, the half-life [19] was 8 h and the bioavailability [20] was 84%. It also gave a concentration at 3 h [21] of 1500 ng/mL, a clearance [22] of 1.83 mL/min/kg and a bioavailability [23] of 84%. It also gave a bioavailability [24] of 84%, a half-life [25] of 21 h and a concentration at 3 h [26] of 1500 ng/mL. It also gave an Activity [27] of 46%, a concentration at 3 h [28] of 1500 ng/mL and a clearance [29] of 2 mL/min/kg.
`O=C(NO)C1c2ccc(O)cc2CCN1S(=O)(=O)c1cc(Cl)ccc1Cl` (stereo not given) showed an IC50 [30] of 50000 nM.
